Experiments:
Type in all cases: in vivo, rat
Conditions in all cases: rats
IL-6 = test: LPS-induced acute lung injury, BAL IL-6 ELISA
Protocol: (§1) The study was designed to evaluate the direct impact of an Aloe-based composition (UP360) made in the Example 9 in alleviating LPS-induced acute lung injury administered orally at 500 mg/kg and 250 mg/kg. […] In this study, we treated rats with the test materials orally for 7 days before model induction with LPS. On the 8th day, an hour after oral treatment, LPS was instilled intratracheally (i.t.) at 10 mg/kg dissolved in 0.1 mL/100 g PBS to each rat. The normal control rats received the same volume i.t. PBS only.
(§2) We sacrificed surviving animals 24 hours after intratracheal LPS administration to the rats. At necropsy, collected bronchoalveolar lavage (BAL) by intratracheal injection of 1.5 mL PBS into the right lobe followed by gentle aspiration at least 3 times. Pooled recovered fluid, centrifuged at 1500 rpm for 10 min at 4 ° C., and was used to measure cytokines (e.g. IL-6) and pulmonary protein levels. […]
(§3) The presence of IL-6 in undiluted rat broncho-alveolar lavage (BAL) from Example 23 was measured using the Rat IL-6 Quantikine ELISA kit from R&D Systems (product #: R6000B) as follows: undiluted BAL was added to a microplate coated with IL-6 antibody. […] After developing for 30 minutes at room temperature, a stop solution was added, and the absorbance was read at 450 nm. The concentration of IL-6 was calculated based on the absorbance readings of an IL-6 standard curve.

TNF-α = test: LPS-induced acute lung injury, serum TNF-α ELISA
Protocol: as §1, §2
as §3, with “TNF-α” for “IL-6”, “serum” for “broncho-alveolar lavage (BAL)”, “rat TNF-α” for “Rat IL-6”, “(product#: RTA00)” for “(product #: R6000B)”, “serum” for “BAL”, “a TNF-α” for “an IL-6”

[1] = LPS-induced acute lung injury, BAL total protein (BCA)
Protocol: as §1, §2
The amount of total proteins in the broncho-alveolar lavage (BAL) samples from Example 23 was measured using the Pierce BCA Protein Assay kit from ThermoFisher Scientific (product #: 23225) as follows: BAL was diluted 1:5, mixed with bicinchoninic acid (BCA) reagent in a microplate, and incubated at 37° C. for 30 minutes. Absorbance was read at 580 nm, and protein concentration in BAL was calculated based on the absorbance readings of a bovine serum albumin standard curve.

IL-1β = test: LPS-induced acute lung injury, serum IL-1β ELISA
Protocol: as §1, §2
as §3, with “IL-1β” for “IL-6”, “serum” for “broncho-alveolar lavage (BAL)”, “(product#: RLBOO)” for “(product #: R6000B)”, “serum” for “BAL”

[2] = LPS 10 mg/kg i.t., 24 hours post, oral, 500 mg/kg

CCCC(=O)[O-].[Na+] [Sodium Butyrate]
BAL IL-6 level, Mean ± SD (IL-6; [2]): 1933.30 ± 1744.23 pg/mL | reduction in the level of BAL IL-6 vs vehicle (IL-6; LPS i.t., 500 mg/kg oral): 37.7% | serum TNF-α level, Mean ± SD (TNF-α; LPS 10 mg/kg i.t., 24 hours post, oral 7 days pre-treatment, 500 mg/kg): 3.35 ± 1.73 pg/mL | reduction in serum TNF-α level vs vehicle control (TNF-α; LPS i.t., 500 mg/kg oral): 67.9% | BAL protein level, Mean ± SD [1, 2]: 2940.14 ± 2092.32 µg/mL | reduction in BAL total proteins vs vehicle ([1]; LPS i.t., 500 mg/kg oral): 30.2% | serum IL-1β level, Mean ± SD (IL-1β; [2]): 22.58 ± 9.46 pg/mL | reduction in serum IL-1β vs vehicle (IL-1β; LPS i.t., 500 mg/kg oral): 65.3%

Reference: US20220016196A1, “Aloe Based Compositions Comprising Polysaccharides and Polyphenols for Regulation of Homeostasis of Immunity” (Unigen, Inc., priority 2020, published 2022)
